In US12390437B2, “Itaconic acid derivatives and uses thereof intreating an inflammatory disease or a disease associated with an undesirable immune response” (Sitryx Therapeutics Limited, priority 2019, dated 2025):

System: IL-1β cytokine output from THP-1s
Test: THP-1 AlphaLISA IL-1β cytokine assay
Assay type: cell-based, human
Conditions: Homo sapiens, THP-1, PMA-differentiated THP-1 cells, LPS 24 hr then Nigericin 1 hour; read-out: IL-1β (IC50)
In short: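 AlphaLISA read-out of cytokine released into supernatants of differentiated THP-1 cells. Cells were PMA-treated for 72 h, exposed to compound for 30 min, stimulated with LPS for 24 h, then given nigericin for 1 h before harvest. IC50 values come from normalised concentration-response curves.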

| IC50 [µM] | Compound |
| --- | --- |
| 11 | C=C(CC(=O)OCCCCCCCC)C(=O)OC(C)C(=O)N(C)CC(=O)O (centres unmarked) [Example 100, N-methyl-N-(2-((2-methylene-4-(octyloxy)-4-oxobutanoyl)oxy)propanoyl)glycine] |
| 15.2 | C=C(CC(=O)OCCCCCCCC)C(=O)OC(C)C(=O)N1CCC[C@H]1C(=O)O (stereo partly drawn) [Example 101, (2-((2-methylene-4-(octyloxy)-4-oxobutanoyl)oxy)propanoyl)-L-proline] |
| 1.5 | C=C(CC(=O)OCCCCCCCC)C(=O)OC(C)C(=O)NCC(=O)O (centres unmarked) [Example 102, (2-((2-methylene-4-(octyloxy)-4-oxobutanoyl)oxy)propanoyl)glycine] |
| 16.2 | C=C(CC(=O)OCCCCCC)C(=O)OCC(=O)NS(=O)(=O)N(C)C [Example 118, 1-(2-((N,N-dimethylsulfamoyl)amino)-2-oxoethyl) 4-hexyl 2-methylenesuccinate] |

System: IL-6 cytokine output from THP-1s
Test: THP-1 AlphaLISA IL-6 cytokine assay
Assay type: cell-based, human
Conditions: Homo sapiens; PMA-differentiated THP-1 cells, LPS 24 hr then Nigericin 1 hour
Protocol: Measuring Inhibitory Effects on IL-1β and IL-6 Cytokine Output from THP-1s
The cytokine inhibition profiles of compounds of formula (IW-1) were determined in a differentiated THP-1 cell assay. All assays were performed in RPMI-1640 growth medium (Gibco), supplemented with 10% fetal bovine serum (FBS; Gibco), 1% penicillin-streptomycin and 1% sodium pyruvate unless specified otherwise. The IL-1β and IL-6 cytokine inhibition assays were each run in a background of differentiated THP-1 cells as described below. All reagents described were from Sigma-Aldrich unless specified otherwise. Compounds were prepared as 10 mM DMSO stocks.
THP-1 cells were expanded as a suspension up to 80% confluence in appropriate growth medium. Cells were harvested, suspended, and treated with an appropriate concentration of phorbol 12-myristate 13-acetate (PMA) over a 72 hr period (37° C./5% CO2).
Following 72 hrs of THP-1 cell incubation, cellular medium was removed and replaced with fresh growth media containing 1% of FBS. Working concentrations of compounds were prepared separately in 10% FBS treated growth medium and pre-incubated with the cells for 30 minutes (37° C./5% CO2). Following the 30 minute compound pre-incubation, THP-1s were treated with an appropriate concentration of LPS and the THP-1s were subsequently incubated for a 24 hr period (37° C./5% CO2). An appropriate final concentration of Nigericin was then dispensed into the THP-1 plates and incubated for 1 hour (37° C./5% CO2) before THP-1 supernatants were harvested and collected in separate polypropylene 96-well holding plates.
Reagents from each of the IL-1β and IL-6 commercial kits (Perkin Elmer) were prepared and run according to the manufacturer's instructions. Subsequently, fluorescence signal detection in a microplate reader was measured (EnVision® Multilabel Reader, Perkin Elmer).
Percentage inhibition was calculated per cytokine by normalising the sample data to the high and low controls used within each plate (+/−LPS respectively). Percentage inhibition was then plotted against compound concentration and the 50% inhibitory concentration (IC50) was determined from the resultant concentration-response curve.

| IC50 [µM] | Compound |
| --- | --- |
| 5.1 | C=C(CC(=O)OCCCCCCCC)C(=O)OC(C)C(=O)N(C)CC(=O)O (centres unmarked) [Example 100, N-methyl-N-(2-((2-methylene-4-(octyloxy)-4-oxobutanoyl)oxy)propanoyl)glycine] |
| 4.7 | C=C(CC(=O)OCCCCCCCC)C(=O)OC(C)C(=O)N1CCC[C@H]1C(=O)O (stereo partly drawn) [Example 101, (2-((2-methylene-4-(octyloxy)-4-oxobutanoyl)oxy)propanoyl)-L-proline] |
| 1.1 | C=C(CC(=O)OCCCCCCCC)C(=O)OC(C)C(=O)NCC(=O)O (centres unmarked) [Example 102, (2-((2-methylene-4-(octyloxy)-4-oxobutanoyl)oxy)propanoyl)glycine] |
| 14 | C=C(CC(=O)OCCCCCC)C(=O)OCC(=O)NS(=O)(=O)N(C)C [Example 118, 1-(2-((N,N-dimethylsulfamoyl)amino)-2-oxoethyl) 4-hexyl 2-methylenesuccinate] |

System: NRF2
Test: NRF2 +/-GSH activation assay (DiscoverX PathHunter NRF2 translocation kit, U2OS cells)
Assay type: cell-based
Conditions: Homo sapiens, U2OS; normalised to dimethyl fumarate 'High' control; GSH condition not stated in Table 5; read-out: NRF2 activation Emax
Protocol: Measuring Compound Activation Effects on the Anti-Inflammatory Transcription Factor NRF2 in DiscoverX PathHunter NRF2 Translocation Kit
Potency and efficacy of compounds of formula (IW-1) against the target of interest to activate NRF2 (nuclear factor erythroid 2-related factor 2) were determined using the PathHunter NRF2 translocation kit (DiscoverX). The NRF2 translocation assay was run using an engineered recombinant cell line, utilising enzyme fragment complementation to determine activation of the Keap1-NRF2 protein complex and subsequent translocation of NRF2 into the nucleus. Enzyme activity was quantified using a chemiluminescent substrate consumed following the formation of a functional enzyme upon PK-tagged NRF2 translocation into the nucleus.
The assay was run under either +/−GSH (glutathione) conditions to determine the attenuating activities of GSH against target compounds.
Additionally, a defined concentration of dimethyl fumarate was used as the ‘High’ control to normalise test compound activation responses to.
U2OS PathHunter eXpress cells were thawed from frozen prior to plating. Following plating, U2OS cells were incubated for 24 hrs (37° C./5% CO2) in commercial kit provided cell medium.
Following 24 hrs of U2OS incubation, cells were directly treated with an appropriate final concentration of compound, for −GSH conditions, or for +GSH conditions, an intermediate plate containing 6× working concentrations of compound stocks was prepared in a 6 mM working concentration of GSH solution (solubilised in sterile PBS). Following a 30 minute compound-GSH pre-incubation (37° C./5% CO2) for +GSH treatment, plated U2OS cells were incubated with an appropriate final concentration of compound and GSH.
Following compound (+/−GSH) treatment, the U2OS plates were incubated for a further 6 hours (37° C./5% CO2) before detection reagent from the PathHunter NRF2 commercial kit was prepared and added to test plates according to the manufacturer's instructions. Subsequently, the luminescence signal detection in a microplate reader was measured (PHERAstar®, BMG Labtech).
Percentage activation was calculated by normalising the sample data to the high and low controls used within each plate (+/−DMF). Percentage activation/response was then plotted against compound concentration and the 50% activation concentration (EC50) was determined from the plotted concentration-response curve.

| Compound | Emax [%] |
| --- | --- |
| C=C(CC(=O)OCCCCCCCC)C(=O)OC(C)C(=O)N(C)CC(=O)O (centres unmarked) [Example 100, N-methyl-N-(2-((2-methylene-4-(octyloxy)-4-oxobutanoyl)oxy)propanoyl)glycine] | 195 |
| C=C(CC(=O)OCCCCCCCC)C(=O)OC(C)C(=O)N1CCC[C@H]1C(=O)O (stereo partly drawn) [Example 101, (2-((2-methylene-4-(octyloxy)-4-oxobutanoyl)oxy)propanoyl)-L-proline] | 186 |
| C=C(CC(=O)OCCCCCCCC)C(=O)OC(C)C(=O)NCC(=O)O (centres unmarked) [Example 102, (2-((2-methylene-4-(octyloxy)-4-oxobutanoyl)oxy)propanoyl)glycine] | 191 |

Same assay, conditions: Homo sapiens; U2OS PathHunter cells, 6 hours; GSH condition not stated in Table 5; read-out: NRF2 activation EC50

| EC50 [µM] | Compound |
| --- | --- |
| 48.7 | C=C(CC(=O)OCCCCCCCC)C(=O)OC(C)C(=O)N(C)CC(=O)O (centres unmarked) [Example 100, N-methyl-N-(2-((2-methylene-4-(octyloxy)-4-oxobutanoyl)oxy)propanoyl)glycine] |
| 37.9 | C=C(CC(=O)OCCCCCCCC)C(=O)OC(C)C(=O)N1CCC[C@H]1C(=O)O (stereo partly drawn) [Example 101, (2-((2-methylene-4-(octyloxy)-4-oxobutanoyl)oxy)propanoyl)-L-proline] |
| 6.5 | C=C(CC(=O)OCCCCCCCC)C(=O)OC(C)C(=O)NCC(=O)O (centres unmarked) [Example 102, (2-((2-methylene-4-(octyloxy)-4-oxobutanoyl)oxy)propanoyl)glycine] |

System: not listed separately
Test: Mouse pharmacokinetic study, intravenous dosing
Assay type: in vivo
Conditions: male, C57BL/6, mouse, iv; plasma, 10 mg/kg i.v., time 0.05 h; read-out: Parent compound concentration following intravenous administration
Protocol: Pharmacokinetic studies were carried out in 6-8-week-old male C57BL/6 mice having free access to food and water. Intravenous dosing was conducted at 10 mg/kg (5 mL/kg; vehicle: 10% DMSO-90% (25% HP-13-CD in water)) via tail vein injection, with sampling at 3 min, 8 min, 15 min, 30 min, 1, 2, 4, 6 and 8 hours, i.e., 9 time points in total (N=3/time point), using semi-serial bleeding for plasma. Oral compound administration, via gavage, was carried out at 100 mg/kg (10 mL/kg; vehicle: 5% DMSO-95% (0.5% HPMC+0.1% Tween 80 in water)), with sampling at 5 min, 15 min, 30 min, 1, 2, 4, 6, 8 and 24 hours, i.e., 9 time points in total (N=3/time point), using semi-serial bleeding for plasma.
For both intravenous and oral routes, the mice were restrained manually at the designated time points, with ca. 110 μL of blood being taken into K2EDTA tubes via the facial vein. Blood samples were put on ice and centrifuged to obtain plasma samples from which the concentration at each time point was measured by LC-MS/MS.

| concentration at 0.05 h [ng/mL] | Compound |
| --- | --- |
| 3050 | C=C(CC(=O)OCCCCCC)C(=O)OCC(=O)NS(=O)(=O)N(C)C [Example 118, 1-(2-((N,N-dimethylsulfamoyl)amino)-2-oxoethyl) 4-hexyl 2-methylenesuccinate] |

Same assay, conditions: male, C57BL/6, mouse, iv; plasma, 10 mg/kg i.v., time 0.133 h; read-out: Parent compound concentration following intravenous administration

| concentration at 0.133 h [ng/mL] | Compound |
| --- | --- |
| 161 | C=C(CC(=O)OCCCCCC)C(=O)OCC(=O)NS(=O)(=O)N(C)C [Example 118, 1-(2-((N,N-dimethylsulfamoyl)amino)-2-oxoethyl) 4-hexyl 2-methylenesuccinate] |

Same assay, conditions: male, C57BL/6, mouse, iv; plasma, 10 mg/kg i.v., time 0.25 h; read-out: Parent compound concentration following intravenous administration

| concentration at 0.25 h [ng/mL] | Compound |
| --- | --- |
| 8 | C=C(CC(=O)OCCCCCC)C(=O)OCC(=O)NS(=O)(=O)N(C)C [Example 118, 1-(2-((N,N-dimethylsulfamoyl)amino)-2-oxoethyl) 4-hexyl 2-methylenesuccinate] |

Same assay, conditions: male, C57BL/6, mouse, iv; plasma, 10 mg/kg i.v., time 0.5 h; read-out: Parent compound concentration following intravenous administration

| concentration at 0.5 h [ng/mL] | Compound |
| --- | --- |
| 2.4 | C=C(CC(=O)OCCCCCC)C(=O)OCC(=O)NS(=O)(=O)N(C)C [Example 118, 1-(2-((N,N-dimethylsulfamoyl)amino)-2-oxoethyl) 4-hexyl 2-methylenesuccinate] |

Same assay, conditions: male, C57BL/6, mouse, iv; plasma, 10 mg/kg i.v., time 1 h; read-out: Parent compound concentration following intravenous administration

| concentration at 1 h [ng/mL] | Compound |
| --- | --- |
| < 0.8 | C=C(CC(=O)OCCCCCC)C(=O)OCC(=O)NS(=O)(=O)N(C)C [Example 118, 1-(2-((N,N-dimethylsulfamoyl)amino)-2-oxoethyl) 4-hexyl 2-methylenesuccinate] |

Same assay, conditions: male, C57BL/6, mouse, iv; plasma, 10 mg/kg i.v., time 2 h; read-out: Parent compound concentration following intravenous administration

| concentration at 2 h [ng/mL] | Compound |
| --- | --- |
| < 0.8 | C=C(CC(=O)OCCCCCC)C(=O)OCC(=O)NS(=O)(=O)N(C)C [Example 118, 1-(2-((N,N-dimethylsulfamoyl)amino)-2-oxoethyl) 4-hexyl 2-methylenesuccinate] |

Same assay, conditions: male, C57BL/6, mouse, iv; plasma, 10 mg/kg i.v., time 4 h; read-out: Parent compound concentration following intravenous administration

| concentration at 4 h [ng/mL] | Compound |
| --- | --- |
| < 0.8 | C=C(CC(=O)OCCCCCC)C(=O)OCC(=O)NS(=O)(=O)N(C)C [Example 118, 1-(2-((N,N-dimethylsulfamoyl)amino)-2-oxoethyl) 4-hexyl 2-methylenesuccinate] |

Same assay, conditions: male, C57BL/6, mouse, iv; plasma, 10 mg/kg i.v., time 6 h; read-out: Parent compound concentration following intravenous administration

| concentration at 6 h [ng/mL] | Compound |
| --- | --- |
| < 0.8 | C=C(CC(=O)OCCCCCC)C(=O)OCC(=O)NS(=O)(=O)N(C)C [Example 118, 1-(2-((N,N-dimethylsulfamoyl)amino)-2-oxoethyl) 4-hexyl 2-methylenesuccinate] |

Same assay, conditions: male, C57BL/6, mouse, iv; plasma, 10 mg/kg i.v., time 8 h; read-out: Parent compound concentration following intravenous administration

| concentration at 8 h [ng/mL] | Compound |
| --- | --- |
| < 0.8 | C=C(CC(=O)OCCCCCC)C(=O)OCC(=O)NS(=O)(=O)N(C)C [Example 118, 1-(2-((N,N-dimethylsulfamoyl)amino)-2-oxoethyl) 4-hexyl 2-methylenesuccinate] |
